Measurements published in patent publication EP2114888B1, “TRICYCLIC COMPOUNDS AND THEIR USE AS GLUCOCORTICOID RECEPTOR MODULATORS” (priority 2007, dated 2008).

Tests used:
IL-1β = assay: Ex vivo LPS-stimulated human whole blood, IL-1β production; type: cell-based; settings: one donor
Procedure: (§1) Venous blood from human donors was collected as 10 ml aliquots in tubes containing sodium heparin (BD Vacutainer from Becton Dickinson and Company, Franklin Lakes, NY). Blood was added to sterile polystyrene round bottom 96-well tissue culture plates (Corning Costar) at 100 µl/well, omitting the outside wells. Media (RPMI Medium 1640 with L-glutamine, Invitrogen Corporation, Carlsbad, CA) was added to the blood in 90 µl aliquots for a total volume of 190 µl. Outside wells were filled with 200 µl of media. Blood was placed in a humidified 37°C incubator with 5% CO2 while compounds were prepared (nearly 60 minutes).
(§2) Compounds were prepared from 10 mM stock solutions in dimethylsulfoxide (DMSO, Sigma-Aldrich). […] Final DMSO and ethanol concentrations in the assay were 0.1 % and 1.5%. The samples were gently triturated twice to mix and replaced in the incubator. LPS stock (E. coli serotype 0111:B4, Sigma-Aldrich), stored in aliquots of 100 µg/ml in RPMI at -20°C, was diluted 1/50 in RPMI to make a working stock solution. After 60 minutes of incubation, 10 µl of the prepared LPS working stock was added to the blood to a final concentration of 100 ng/ml, omitting wells to be used as negative control. The samples were again gently triturated and the plates incubated overnight for 22 hours. Following incubation, the blood was centrifuged at 1500 x g for 5 minutes and the plasma removed to either freeze at -20°C or assay for cytokine release.
(§3) IL-1β, IFNγ,IL-6, and TNFα protein levels were measured using Meso Scale assay kits (Meso Scale Discovery, Gaithersburg, MD). Reagents were allowed to come to room temperature. Meso Scale plates were blocked with 30 µl of human plasma/serum assay diluent with gentle shaking for 60 minutes at room temperature. Plates were washed 3x with wash buffer (PBS, Invitrogen Corporation, with 0.05% Tween-20, Sigma-Aldrich). Calibrators for standard curves were prepared in human plasma/serum assay diluent as a 1/5 serial dilution to achieve final concentrations ranging from 50000 pg/ml to 3.2 pg/ml. Samples and calibrators were added at 20 µl/well, then incubated at room temperature with gentle shaking for 90 minutes. Plates were again washed 3 times with wash buffer. Detection antibody was diluted in human plasma/serum antibody diluent to 1 µg/ml and added to the plate at 20 µl/well. Plates were incubated as before for 60 minutes and washed again. Read Buffer T (4x) was diluted 1:1 with mqH2O to 2 times concentration and 150 µl added to each well. Plates were analyzed on the SECTOR Imager 6000 (Meso Scale Discovery) to generate raw signal values.
(§4) Individual values were compared to positive and negative controls (vehicle treated blood with LPS and vehicle treated blood without LPS, respectively) to generate % inhibition. Triplicate values were averaged for each donor. The values for two donors were averaged (only one donor was used for IL-1β) and graphed using 4-parameter fit curves in the GraFit 5.0.11 application.

IL-6 = assay: Ex vivo LPS-stimulated human whole blood, IL-6 production; type: cell-based; settings: mean values
Procedure: as §1, §2, §3, §4

[1] = system: Mouse Collagen-induced arthritis (mCIA); assay: Therapeutic mouse collagen-induced arthritis (mCIA) model; type: in vivo, Male DBA/J mice
From the text: Mouse Collagen-induced arthritis is a commonly used chronic, preclinical model of rheumatoid arthritis in which joint swelling and bone destruction occur following immunization with type II collagen. Reduction of disease incidence and severity has been shown previously to be predictive of disease-modification and signs and symptoms mitigation, respectively, in a clinical setting. In the therapeutic mCIA model, induction of disease incidence and severity was synchronized via LPS stimulation. Male DBA/J mice were immunized with 100 ug of bovine type II collagen (bCII) on day 0. […] Dosing of compounds was initiated in the therapeutic mode on day 34 and continued through day 49. Different treatments were compared by measuring the decrease in incidence (i.e., resolution of disease) and the decrease in severity of paw swelling over time.

[2] = Cortical bone histomorphometry to determine bone formation rate (BFR); type: in vivo, mice
Procedure: Calcein incorporates into the bone mineral and allows measurement of bone formation rate. Calcein was dissolved in 2% sodium bicarbonate. During the tissue harvest, the left tibiae were excised and cleaned for cortical histomorphometry measurements. After all skin and muscle were removed, tibiae were placed in 70% ethanol (4°C) in the dark for a minimum of 24 hours.
Ground transverse sections were used for histomorphometric analysis of cortical bone. Bones were sectioned using a low-speed saw (Isomet, Buehler, Lake Bluff, IL) equipped with a diamond wafer blade. The end of each tibia was removed proximal to tibia-fibula synostosis and a […] cross-section was cut. Using a roughened glass plate and a cork, sections were ground to […] until transparent and all labels were distinguishable under a fluorescent microscope. […] Using the Osteomeasure Bone Analysis Program (Osteometrics, Inc., Decatur, Georgia), bone formation rate was calculated by tracing the 1^s1 and 3rd fluorescent labels and the inner and outer perimeter of the bone. Bone formation rate was calculated by the following equation: (Inter-label width/Label interval) * (Labeled perimeter/Bone perimeter). At least five samples were measured from each treatment group in each study.

[3] = system: house dust mite-induced BAL inflammatory cell influx; assay: House dust mite model of asthma; type: in vivo, Mice; settings: p.o., b.i.d., BAL fluid
[4] = mouse, in vivo
Procedure: Blood samples were obtained after three weeks of dosing for a steady-state pharmacokinetic (PK) analysis. To assess compound effects on LPS-induced TNFα, all mice received an intraperitoneal injection of LPS (Salmonella typhosa, L-7895; Sigma-Aldrich, St. Louis,) 2.5 hr after the last dose on day 28. Mice were sacrificed 90 minutes after LPS administration. Serum samples were quantified for osteocalcin and TNFα using the multiplex assays (Linco Research, Inc, St. Charles, MO; Luminex 100, Austin, TX). Samples were diluted 1:20 and the assay was run according to manufacturer's instructions. The osteocalcin standard was purchased separately (Biomedical Technologies Inc., Stoughton, MA). Mice were fasted for 4 hours before serum was collected for TNFα, and osteocalcin levels. For each experiment, outliers were detected by calculating the number of standard deviations from the mean of the group. If the value being examined was more than 2.5 standard deviations from the mean, it was excluded from the rest of the calculations.
Due to blood volume sampling limitations in mice, AUC(0-4 hr) values were used to make pharmacodynamic comparisons.

in vivo = settings: rat, po
[5] = Oral absorption profile in rats
[6] = Caco-2 cell monolayer A→B permeability assay; settings: human
From the text: The Caco-2 cell monolayer is an in vitro tissue culture model of the intestinal epithelium. These cells are of human colonic origin and become polarized, fully differentiated enterocytes in 2-3 weeks. Once differentiated, these cells have tight junctions and express various biochemical processes such as active efflux transporters including P-glycoprotein (P-gp). With this model, it is possible to determine the apparent permeability (Papp) of a compound across the polarized Caco-2 cell monolayer.
An A→B Assay is performed with Caco-2 cell monolayers to determine compound Papp from A chamber to B chamber. This Papp is representative of luminal (gut) to serosal (blood) compound transport across intestinal epithelium that may be seen during intestinal absorption.

Structure (SMILES): Cc1ncccc1NC(=O)c1ccc2c(c1)CC[C@@H]1C[C@@](O)(C(F)(F)F)CC[C@@]21Cc1ccccc1 [Example 1, (4βS,7R,8αR)-4β-benzyl-7-hydroxy-N-(2-methylpyridin-3-yl)-7-(trifluoromethyl)-4β,5,6,7,8,8α,9,10-octahydrophenanthrene-2-carboxamide]
- inhibition at 0.000457247 µM (IL-1β; 0.457247 nM): 23.4%
- inhibition at 0.00137174 µM (IL-1β; 1.371742 nM): 22.4%
- inhibition at 0.00411523 µM (IL-1β; 4.115226 nM): 11.2%
- inhibition at 0.0123457 µM (IL-1β; 12.34568 nM): 21.5%
- inhibition at 0.037037 µM (IL-1β; 37.03704 nM): 38.2%
- inhibition at 0.111111 µM (IL-1β; 111.1111 nM): 39.7%
- inhibition at 0.333333 µM (IL-1β; 333.3333 nM): 57.8%
- inhibition at 1 µM (IL-1β; 1000 nM): 53.5%
- inhibition at 0.000457247 µM (IL-6; 0.457247 nM): -1.37%
- inhibition at 0.00137174 µM (IL-6; 1.371742 nM): 3.33%
- inhibition at 0.00411523 µM (IL-6; 4.115226 nM): -1.07%
- inhibition at 0.0123457 µM (IL-6; 12.34568 nM): -0.369%
- inhibition at 0.037037 µM (IL-6; 37.03704 nM): -0.828%
- inhibition at 0.111111 µM (IL-6; 111.1111 nM): 0.944%
- inhibition at 0.333333 µM (IL-6; 333.3333 nM): 2.15%
- inhibition at 1 µM (IL-6; 1000 nM): 8.05%
- ED80 ([1]; Mus musculus, dosing day 34 through day 49, read-out: Therapeutic mCIA (ED80 dose)): 1.5 mg/kg
- Therapeutic mCIA (ED50 dose) ([1]; dosing day 34 through day 49, listed as Example 1 free base): 0.4 mg/kg
- Disease severity (therapeutic mCIA) EAUC50 (AUC 0-4 hr) ([1]; mice): 0.09 µg·h/mL
- Disease severity (therapeutic mCIA) EAUC80 (AUC 0-4 hr) ([1]; mice): 0.19 µg·h/mL
- Cortical bone formation rate (BFR) EAUC50 ([2]; data set 2): 0.35
- Cortical bone formation rate (BFR) EAUC80 ([2]; data set 2): 1.76
- Cortical bone formation rate (BFR) EAUC50 (AUC 0-4 hr) ([2]; mice): 270 ng·h/mL
- Cortical bone formation rate (BFR) EAUC80 (AUC 0-4 hr) ([2]; mice): 1550 ng·h/mL
- Eosinophils (% inhibition) ([3]; 0.1 mg/kg): 42%
- Lymphocytes (% inhibition) ([3]; 0.1 mg/kg): 34%
- Neutrophils (% inhibition) ([3]; 0.1 mg/kg): 29%
- T-cells (% inhibition) ([3]; 0.1 mg/kg): 39%
- Total cells (% inhibition) ([3]; 0.1 mg/kg): 22%
- Eosinophils (% inhibition) ([3]; 1 mg/kg): 97%
- Lymphocytes (% inhibition) ([3]; 1 mg/kg): 94%
- Neutrophils (% inhibition) ([3]; 1 mg/kg): 97%
- T-cells (% inhibition) ([3]; 1 mg/kg): 88%
- Total cells (% inhibition) ([3]; 1 mg/kg): 72%
- Eosinophils (% inhibition) ([3]; 10 mg/kg): 99%
- Lymphocytes (% inhibition) ([3]; 10 mg/kg): 97%
- Neutrophils (% inhibition) ([3]; 10 mg/kg): 100%
- T-cells (% inhibition) ([3]; 10 mg/kg): 96%
- Total cells (% inhibition) ([3]; 10 mg/kg): 83%
- AUC(0-4 hr) values as share of the AUC(0-24 hr) values [4]: more than 95%
- AUC (in vivo): 460 ng·h/mL
- bioavailability F [5]: 17%
- Cmax ([5]; oral): 130 ng/mL
- Papp A→B [6]: 37.5 ×10⁻⁶ cm/s
